Each block holds one compound with its values, some of them ahead of it.
Assays:
MCF7 cells [1] = experiment: Cell growth inhibition assay (MTT); format: cell-based, human; conditions: for IC50: MTT, 72 h after drug exposure
Procedure, shortened: (§1)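 Cells in DMEM with 10% FBS attached for 24 h, then treated 72 h; MTT read-out. Single-point screen at 10 µM, IC50 from 10^−10 to 10^−2 M series in triplicate, three experiments; efflux sensitivity assessed with 10 µM verapamil.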

HeLa cells [2] = experiment: Cell growth inhibition assay (MTT); format: cell-based, human; conditions: 72 h after drug exposure
Procedure, shortened: (§2)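 Compounds active at a 10 µM single-point screen were titrated (10^−10 to 10^−2 M) on cells in DMEM/10% heat-inactivated FBS. After 72 h, MTT viability gave IC50 values; replicate counts were triplicate wells across three experiments.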

HT-29 cells [3] = experiment: Cell growth inhibition assay (MTT); format: cell-based, human
Procedure, shortened: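 Following overnight (24 h) attachment, cultures received serial compound concentrations from 10^−10 to 10^−2 M and were incubated 72 h before MTT viability measurement. Where efflux-pump sensitivity was tested, IC50 was redetermined with 10 µM verapamil present.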

HepG2 cells = experiment: Cell growth inhibition assay (MTT); format: cell-based, human
Procedure, shortened: as §1

LNCaP cells = experiment: Cell growth inhibition assay (MTT); format: cell-based, human; conditions: 72 h after drug exposure
Procedure, shortened: as §1

PC-3 cells = experiment: Cell growth inhibition assay (MTT); format: cell-based, human
Procedure, shortened: as §2

U87MG cells [4] = experiment: Cell growth inhibition assay (MTT); format: cell-based, human; conditions: for IC50: MTT, 72 h after drug exposure
Procedure, shortened: as §1

T98G cells = experiment: Cell growth inhibition assay (MTT); format: cell-based, human; conditions: 72 h after drug exposure
Procedure, shortened: as §2

HT-29 cells [5] = experiment: Cell growth inhibition (MTT) in the presence of 10 µM verapamil (sensitivity to MDR efflux pumps); format: cell-based, human; conditions: 10 µM verapamil (P-gp/MDR1 inhibitor)
MCF7 cells [6] = experiment: Immunofluorescence of cellular microtubules (confocal microscopy); format: cell-based, human; conditions: MCF7, 24 h; 8 and 14 100 nM, 9 500 nM
Experimental: (§3) The 8 × 10^4 HeLa, MCF7, and U87 MG cells were seeded on 0.01% poly-L-lysine pre-coated square glass coverslips ([…]) deposited on 6-well plates (1 coverslip/well) and incubated in complete DMEM medium (see above) at 37 °C and 5% CO2 atmosphere for 24 h. Then, the culture medium was replaced by fresh complete DMEM, and cells were incubated in the presence or absence of selected compounds for 24 h. Untreated cells were used as negative controls. […] In that way, compounds with similar antiproliferative potencies were tested at the same concentrations. HeLa cells were treated with 200 nM of compounds 8 and 14 and 500 nM of compound 9; MCF7 cells were treated with 100 nM of compounds 8 and 14 and 500 nM of compound 9; and U87 MG cells were treated with 50 nM of compound 8 and 100 nM of compounds 9 and 14. After incubation, medium was removed and coverslips were washed three times with PBS, fixed in 4% formaldehyde in PBS for 10 min, permeabilized with 0.5% Triton X-100 (Sigma-Aldrich, St. Louis, MO, USA) in PBS for 90 s at 4 °C, and blocked with 10% BSA in PBS for 30 min. After four washes with PBS, the coverslips were incubated for 1 h with anti-α-tubulin mouse monoclonal antibody (Sigma-Aldrich, St. Louis, MO, USA), and diluted 1:200 in PBS containing 3% BSA. After four washes wish PBS, coverslips were incubated, in darkness, with fluorescent secondary antibody Alexa Fluor 488 goat anti-mouse IgG (Molecular Probes, Invitrogen, Eugenen, OR, USA), and diluted 1:400 in PBS containing 1% BSA for 1.5 h. After four washes with PBS, a drop of ProLong™ Gold Antifade Mountant containing DAPI (ThermoFisher, Waltham, MA, USA) was added for cell nuclei staining. Samples were analyzed via confocal microscopy using a LEICA SP5 microscope DMI-6000V model coupled to a LEICA LAS AF software computer.

HeLa cells [7] = experiment: as above; format: cell-based, human; conditions: 24 h, 8 and 14 200 nM, 9 500 nM
Experimental: as §3

U87MG cells [8] = experiment: as above; format: cell-based, human; conditions: 24 h, 8 50 nM, 9 and 14 100 nM
Experimental: as §3

GL261 cells = experiment: Cell growth inhibition assay (MTT); format: cell-based, murine
Procedure, shortened: as §1

IC50 (MCF7 cells [1]): 34 nM | IC50 (HeLa cells [2]): 85 nM | IC50 (HT-29 cells [3]; 72 h after drug exposure): 208 nM | IC50 (HepG2 cells; 72 h after drug exposure): 94 nM | IC50 (LNCaP cells): 88 nM | IC50 (PC-3 cells; 72 h after drug exposure): 161 nM | IC50 (U87MG cells [4]): 9 nM | IC50 (HT-29 cells [5]): 215 nM
SMILES: CCNC(=O)N(Cc1cccnc1)c1nc2ccc(OC)cc2s1 [Compound 8]
selectivity index against U87MG (U87MG cells [4]; HEK-293 versus U87MG): ~900 | IC50 (T98G cells): 52 nM | effect on the microtubule network (MCF7 cells [6]): disruption of the microtubule network | effect on the microtubule network (HeLa cells [7]): disruption of the microtubule network | effect on the microtubule network (U87MG cells [8]): disruption of the microtubule network | IC50 (GL261 cells; 72 h after drug exposure): 25 nM

IC50 (MCF7 cells [1]; Homo sapiens, MCF7): 15 nM | IC50 (HeLa cells [2]; Homo sapiens, HeLa): 107 nM | IC50 (HT-29 cells [3]; Homo sapiens, HT-29, 72 h after drug exposure): 322 nM | IC50 (HepG2 cells; Homo sapiens, HepG2, 72 h after drug exposure): 83 nM | IC50 (LNCaP cells; Homo sapiens, LNCaP): 93 nM | IC50 (PC-3 cells; Homo sapiens, PC-3, 72 h after drug exposure): 195 nM | IC50 (U87MG cells [4]; Homo sapiens, U-87 MG): 37 nM | IC50 (HT-29 cells [5]): 307 nM
SMILES: COc1ccc2nc(N(C=O)Cc3cccnc3)sc2c1 [Compound 14, N-(6-methoxybenzo[d]thiazol-2-yl)-N-(pyridin-3-ylmethyl)formamide]
selectivity index against MCF7 (MCF7 cells [1]; HEK-293 versus MCF7): ~500 | IC50 (T98G cells; Homo sapiens, T98G): 75 nM | effect on the microtubule network (MCF7 cells [6]): disruption of the microtubule network | effect on the microtubule network (HeLa cells [7]): disruption of the microtubule network | effect on the microtubule network (U87MG cells [8]): disruption of the microtubule network | IC50 (GL261 cells; Mus musculus, GL261, 72 h after drug exposure): 35 nM

From publication PMC10301603, “Potent and Selective Benzothiazole-Based Antimitotics with Improved Water Solubility: Design, Synthesis, and Evaluation as Novel Anticancer Agents” (Pharmaceutics, 2023)
